Test results taken from patent US9346809B2 (LEO PHARMA A/S, priority 2009, dated 2016).

What was measured:
Assay type in all cases: biochemical
[1] = target: T1, TYK2 (aa 871-1187, catalytic domain, GST-tag) (Homo sapiens, UniProt P29597); assay: JAK kinase assay (HTRF, phosphorylation of TK substrate-biotin), TYK2; conditions: ATP at Km (13 μM); read-out: TYK2 kinase inhibitory activity (EC50 indicator)
T1 construct: JAK1 (aa 850-1154) and TYK2 (aa 871-1187) are expressed with an N-terminally fused GST-tag; GST (N); purchased Carna Biosciences, Inc; host or cells: baculovirus expression system
T1 sequence (P29597 871-1187): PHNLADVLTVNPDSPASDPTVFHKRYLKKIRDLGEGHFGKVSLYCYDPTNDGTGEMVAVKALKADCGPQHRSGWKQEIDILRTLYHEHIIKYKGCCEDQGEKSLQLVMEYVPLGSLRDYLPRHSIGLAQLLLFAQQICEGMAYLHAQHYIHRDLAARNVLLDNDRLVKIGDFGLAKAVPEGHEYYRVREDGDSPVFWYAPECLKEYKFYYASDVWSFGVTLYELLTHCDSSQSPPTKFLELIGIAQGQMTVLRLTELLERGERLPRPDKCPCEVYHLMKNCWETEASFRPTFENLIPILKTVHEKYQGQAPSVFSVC
Summary of the method: (§1)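 Per reaction, 5 ng JAK1, 0.1 ng JAK2, 0.3 ng JAK3 or 0.8 ng TYK2 (baculovirus-expressed catalytic domains) acted on 1 μM TK substrate-biotin at Km ATP for 20-30 min, RT. Phosphorylation measured by HTRF.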

[2] = target: T2, JAK1 (aa 850-1154, catalytic domain, GST-tag) (Homo sapiens, UniProt P23458); assay: JAK kinase assay (HTRF, phosphorylation of TK substrate-biotin), JAK1; conditions: ATP at Km (7 μM); read-out: JAK1 kinase inhibitory activity (EC50 indicator)
T2 construct: JAK1 (aa 850-1154) and TYK2 (aa 871-1187) are expressed with an N-terminally fused GST-tag; GST (N); purchased Carna Biosciences, Inc; host or cells: baculovirus expression system
T2 sequence (P23458 850-1154): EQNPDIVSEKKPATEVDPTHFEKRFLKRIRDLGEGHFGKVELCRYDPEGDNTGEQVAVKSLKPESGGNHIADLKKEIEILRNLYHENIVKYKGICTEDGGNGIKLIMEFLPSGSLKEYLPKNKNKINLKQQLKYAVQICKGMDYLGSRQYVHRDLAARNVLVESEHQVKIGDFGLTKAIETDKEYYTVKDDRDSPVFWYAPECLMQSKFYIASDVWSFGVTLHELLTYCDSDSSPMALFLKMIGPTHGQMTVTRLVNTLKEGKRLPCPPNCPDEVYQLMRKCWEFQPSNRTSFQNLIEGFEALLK
Summary of the method: as §1

[3] = target: T3, JAK2 (catalytic domain, His-tag) (Homo sapiens, UniProt O60674); assay: JAK kinase assay (HTRF, phosphorylation of TK substrate-biotin), JAK2; conditions: ATP at Km (4 μM); read-out: JAK2 kinase inhibitory activity (EC50 indicator)
T3 construct: All four purified enzymes contain only the catalytic domain; His (N); purchased Carna Biosciences, Inc; host or cells: baculovirus expression system
T3 sequence (O60674 849-1124 limits assumed): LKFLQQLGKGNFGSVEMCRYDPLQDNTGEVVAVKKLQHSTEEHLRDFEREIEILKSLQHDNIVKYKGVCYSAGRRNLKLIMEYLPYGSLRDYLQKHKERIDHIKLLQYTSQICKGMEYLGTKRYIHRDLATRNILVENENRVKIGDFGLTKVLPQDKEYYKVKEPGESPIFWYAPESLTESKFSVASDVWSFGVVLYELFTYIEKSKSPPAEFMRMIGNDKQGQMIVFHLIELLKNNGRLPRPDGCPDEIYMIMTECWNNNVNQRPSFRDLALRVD
Summary of the method: as §1

[4] = target: T4, JAK3 (catalytic domain, His-tag) (Homo sapiens, UniProt P52333); assay: JAK kinase assay (HTRF, phosphorylation of TK substrate-biotin), JAK3; conditions: ATP at Km (2 μM); read-out: JAK3 kinase inhibitory activity (EC50 indicator)
T4 construct: All four purified enzymes contain only the catalytic domain; His (N); purchased Carna Biosciences, Inc; host or cells: baculovirus expression system
T4 sequence (P52333 822-1111 limits assumed): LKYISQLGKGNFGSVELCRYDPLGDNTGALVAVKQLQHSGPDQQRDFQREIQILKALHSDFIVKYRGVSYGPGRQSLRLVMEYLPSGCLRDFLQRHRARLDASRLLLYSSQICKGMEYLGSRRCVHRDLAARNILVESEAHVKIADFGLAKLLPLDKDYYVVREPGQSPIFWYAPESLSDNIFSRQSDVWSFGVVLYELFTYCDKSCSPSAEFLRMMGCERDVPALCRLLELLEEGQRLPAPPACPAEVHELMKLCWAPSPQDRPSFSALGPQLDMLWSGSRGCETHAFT
Summary of the method: as §1

EC50 [1] [µM] | EC50 [2] [µM] | EC50 [3] [µM] | EC50 [4] [µM] | SMILES
> 0.5 | > 0.5 | 0.1 to 0.5 | > 0.5 | O=C(O)C1(C(=O)N2CCN(c3ncnc4[nH]ccc34)CC23CC3)CC1 [Example 85, 1-[7-(7H-Pyrrolo[2,3-d]pyrimidin-4-yl)-4,7-diaza-spiro[2.5]octane-4-carbonyl]-cyclopropanecarboxylic acid]
> 0.5 | > 0.5 | 0.1 to 0.5 | > 0.5 | CN(CC#N)C(=O)C1(C(=O)N2CCN(c3ncnc4[nH]ccc34)CC23CC3)CC1 [Example 86, 1-[7-(7H-Pyrrolo[2,3-d]pyrimidin-4-yl)-4,7-diaza-spiro[2.5]octane-4-carbonyl]-cyclopropanecarboxylic acid cyanomethyl-methyl-amide]
> 0.5 | > 0.5 | > 0.5 | > 0.5 | CN(CCC#N)C(=O)C1(C(=O)N2CCN(c3ncnc4[nH]ccc34)CC23CC3)CC1 [Example 87, 1-[7-(7H-Pyrrolo[2,3-d]pyrimidin-4-yl)-4,7-diaza-spiro[2.5]octane-4-carbonyl]-cyclopropanecarboxylic acid (2-cyano-ethyl)-methyl-amide]
> 0.5 | > 0.5 | 0.1 to 0.5 | > 0.5 | N#CC1CCN(C(=O)C2(C(=O)N3CCN(c4ncnc5[nH]ccc45)CC34CC4)CC2)C1 (centres unmarked) [Example 88, 1-{1-[7-(7H-Pyrrolo[2,3-d]pyrimidin-4-yl)-4,7-diaza-spiro[2.5]octane-4-carbonyl]-cyclopropanecarbonyl}-pyrrolidine-3-carbonitrile]
> 0.5 | < 0.1 | < 0.1 | 0.1 to 0.5 | CC#CCOC(=O)N1CCN(c2ncnc3[nH]ccc23)CC12CC2 [Example 89, 7-(7H-Pyrrolo[2,3-d]pyrimidin-4-yl)-4,7-diaza-spiro[2.5]octane-4-carboxylic acid but-2-ynyl ester]
0.1 to 0.5 | < 0.1 | < 0.1 | 0.1 to 0.5 | Cc1ccsc1C(=O)N1CCN(c2ncnc3[nH]ccc23)CC12CC2 [Example 90, (3-Methyl-thiophen-2-yl)[7-(7H-pyrrolo[2,3-d]pyrimidin-4-yl)-4,7-diaza-spiro[2.5]oct-4-yl]-methanone]
< 0.1 | < 0.1 | < 0.1 | < 0.1 | Cc1ccc(C(=O)N2CCN(c3ncnc4[nH]ccc34)CC23CC3)s1 [Example 91, (5-Methyl-thiophen-2-yl)-[7-(7H-pyrrolo[2,3-d]pyrimidin-4-yl)-4,7-diaza-spiro[2.5]oct-4-yl]-methanone]
0.1 to 0.5 | < 0.1 | < 0.1 | 0.1 to 0.5 | N#Cc1ccc(C(=O)N2CCN(c3ncnc4[nH]ccc34)CC23CC3)c(F)c1 [Example 92, 3-Fluoro-4-[7-(7H-pyrrolo[2,3-d]pyrimidin-4-yl)-4,7-diaza-spiro[2.5]octane-4-carbonyl]-benzonitrile]
0.1 to 0.5 | < 0.1 | < 0.1 | < 0.1 | CC(=O)Nc1nc(N2CCN(C(=O)Cc3ccc(C#N)cc3)C3(CC3)C2)c2cc[nH]c2n1 [Example 93, N-(4-{4-[2-(4-Cyano-phenyl)-acetyl]-4,7-diaza-spiro[2.5]oct-7-yl}-7H-pyrrolo[2,3-d]pyrimidin-2-yl)-acetamide]
0.1 to 0.5 | 0.1 to 0.5 | < 0.1 | 0.1 to 0.5 | N#CCN1CCCC(C(=O)N2CCN(c3ncnc4[nH]ccc34)CC23CC3)C1 (centres unmarked) [Example 94, {3-[7-(7H-Pyrrolo[2,3-d]pyrimidin-4-yl)-4,7-diaza-spiro[2.5]octane-4-carbonyl]-piperidin-1-yl}-acetonitrile]
> 0.5 | 0.1 to 0.5 | 0.1 to 0.5 | > 0.5 | N#CCCN1CCCC(C(=O)N2CCN(c3ncnc4[nH]ccc34)CC23CC3)C1 (centres unmarked) [Example 95, 3-{3-[7-(7H-Pyrrolo[2,3-d]pyrimidin-4-yl)-4,7-diaza-spiro[2.5]octane-4-carbonyl]-piperidin-1-yl}-propionitrile]
> 0.5 | < 0.1 | < 0.1 | 0.1 to 0.5 | COCCOCC(=O)Nc1nc(N2CCN(C(=O)Cc3ccc(C#N)cc3)C3(CC3)C2)c2cc[nH]c2n1 [Example 96, N-(4-{4-[2-(4-Cyano-phenyl)-acetyl]-4,7-diaza-spiro[2.5]oct-7-yl}-7H-pyrrolo[2,3-d]pyrimidin-2-yl)-2-(2-methoxy-ethoxy)-acetamide]
> 0.5 | < 0.1 | 0.1 to 0.5 | 0.1 to 0.5 | N#CCCN1CCC(C(=O)N2CCN(c3ncnc4[nH]ccc34)CC23CC3)CC1 [Example 97, 3-{4-[7-(7H-Pyrrolo[2,3-d]pyrimidin-4-yl)-4,7-diaza-spiro[2.5]octane-4-carbonyl]-piperidin-1-yl}-propionitrile]
> 0.5 | > 0.5 | > 0.5 | > 0.5 | N#Cc1ccc(CC(=O)N2CCN(c3nc(NC(=O)c4ccccc4)nc4[nH]ccc34)CC23CC3)cc1 [Example 98, N-(4-{4-[2-(4-Cyano-phenyl)-acetyl]-4,7-diaza-spiro[2.5]oct-7-yl}-7H-pyrrolo[2,3-d]pyrimidin-2-yl)-benzamide]
> 0.5 | 0.1 to 0.5 | < 0.1 | > 0.5 | N#Cc1ccc(CC(=O)N2CCN(c3nc(NC(=O)c4ccno4)nc4[nH]ccc34)CC23CC3)cc1 [Example 99, Isoxazole-5-carboxylic acid (4-{4-[2-(4-cyano-phenyl)-acetyl]-4,7-diaza-spiro[2.5]oct-7-yl}-7H-pyrrolo[2,3-d]pyrimidin-2-yl)-amide]
0.1 to 0.5 | < 0.1 | < 0.1 | < 0.1 | CC(=O)OCC(=O)Nc1nc(N2CCN(C(=O)Cc3ccc(C#N)cc3)C3(CC3)C2)c2cc[nH]c2n1 [Example 100, Acetic acid (4-{4-[2-(4-cyano-phenyl)-acetyl]-4,7-diaza-spiro[2.5]oct-7-yl}-7H-pyrrolo[2,3-d]pyrimidin-2-ylcarbamoyl)-methyl ester]
> 0.5 | 0.1 to 0.5 | 0.1 to 0.5 | 0.1 to 0.5 | CS(=O)(=O)c1cccc(CC(=O)N2CCN(c3ncnc4[nH]ccc34)CC23CC3)c1 [Example 101, 2-(3-Methanesulfonyl-phenyl)-1-[7-(7H-pyrrolo[2,3-d]pyrimidin-4-yl)-4,7-diaza-spiro[2.5]oct-4-yl]-ethanone]
0.1 to 0.5 | < 0.1 | < 0.1 | < 0.1 | NS(=O)(=O)c1cc(OCC(=O)N2CCN(c3ncnc4[nH]ccc34)CC23CC3)ccc1Cl [Example 102, 2-Chloro-5-{2-oxo-2-[7-(7H-pyrrolo[2,3-d]pyrimidin-4-yl)-4,7-diaza-spiro[2.5]oct-4-yl]-ethoxy}-benzenesulfonamide]
< 0.1 | < 0.1 | < 0.1 | < 0.1 | NS(=O)(=O)c1ccc(C(=O)N2CCN(c3ncnc4[nH]ccc34)CC23CC3)cc1Cl [Example 103, 2-Chloro-4-[7-(7H-pyrrolo[2,3-d]pyrimidin-4-yl)-4,7-diaza-spiro[2.5]octane-4-carbonyl]-benzenesulfonamide]
< 0.1 | < 0.1 | < 0.1 | < 0.1 | CNS(=O)(=O)c1ccc(C(=O)N2CCN(c3ncnc4[nH]ccc34)CC23CC3)cc1 [Example 104, N-Methyl-4-[7-(7H-pyrrolo[2,3-d]pyrimidin-4-yl)-4,7-diaza-spiro[2.5]octane-4-carbonyl]-benzenesulfonamide]
> 0.5 | 0.1 to 0.5 | < 0.1 | 0.1 to 0.5 | O=C(C1CCc2ccccc21)N1CCN(c2ncnc3[nH]ccc23)CC12CC2 (centres unmarked) [Example 105, Indan-1-yl-[7-(7H-pyrrolo[2,3-d]pyrimidin-4-yl)-4,7-diaza-spiro[2.5]oct-4-yl]-methanone]
0.1 to 0.5 | < 0.1 | < 0.1 | 0.1 to 0.5 | O=C(c1ccc2sccc2c1)N1CCN(c2ncnc3[nH]ccc23)CC12CC2 [Example 106, Benzo[b]thiophen-5-yl-[7-(7H-pyrrolo[2,3-d]pyrimidin-4-yl)-4,7-diaza-spiro[2.5]oct-4-yl]-methanone]
> 0.5 | < 0.1 | < 0.1 | < 0.1 | CS(=O)(=O)c1ccc(CC(=O)N2CCN(c3ncnc4[nH]ccc34)CC23CC3)cc1 [Example 107, 2-(4-Methanesulfonyl-phenyl)-1-[7-(7H-pyrrolo[2,3-d]pyrimidin-4-yl)-4,7-diaza-spiro[2.5]oct-4-yl]-ethanone]
